From patent US10479814B2, “Adenosine receptor activation reagent and the uses of thereof” (Zhejiang Subtropical Crops Research Institute, priority 2014, dated 2019)
“Also recorded” adds a separate entry of the source.

How the values were obtained:
[1] = tested on: mouse spontaneous activity; assay: mouse spontaneous activity (sedation); assay type: in vivo
Method: Male ICR mice were randomly divided into four groups, and adenosine A1R antagonist DPCPX was selected. The mice were divided into solvent group, HEA (15 mg/kg) group, DPCPX (4 mg/kg) and DPCPX+HEA (4 mg/kg+15 mg/kg) group; wherein in DPCPX+HEA group, the mice was peritonealelly injected with the antagonist, after 10 min the HEA was peritoneally injected. After 15 min of drug administration, the mice were put into a single opaque square spontaneous activity box (50 cm×50 cm×40 cm), and foot grating number within 5 min was recorded by video camera. Calculating on the basis of four limbs of the mouse entering the same lattice, as the activity index of the animal.

[2] = tested on: mouse PD model induced by MPTP; assay: MPTP induced mouse PD model: TH positive cells in substantia nigra; assay type: in vivo; conditions: MPTP 30 mg/kg mice; Cordyceps cicadae extract 1500 mg/kg; HEA 10 mg/kg ip; 14 days
Method: 24±1 g male C57BL/6 mice were randomly divided into six groups: control group, model group, Cordyceps cicadae extract group (1500 mg/kg) (the extract method can refer to Example 3), HEA (5 mg/kg, 10 mg/kg, 15 mg/kg) group. Using mouse PD model induced by 1-methyl-4-phenyl-[…] (MPTP), in Cordyceps cicadae crude extract group and HEA with different concentration group were respectively peritoneal injected for consecutive 14 days, and at Day 11, before 1 hour of drug administration, MPTP 30 mg/kg was peritoneally injected, for consecutive 4 days, after one day after the last administration, a behavior test of pole-climbing ability was conducted, after 4 days the rat wad killed by puling neck and the striatum was removed. […]
After completion of behaviour detection, the heart was perfuse with 4% paraformaldehyde and the brain was removed, fixed, desiccated, embedded, and different parts in substantia nigra region were removed for coronal sectioned, tyrosine hydroxylase was used as specific marker for the neuron. The primary antibody is monoclonal mouse TH antibody (1;1000, Sigma), and the secondary antibody is Alexa fluor 488 fluorescence labeling goat anti-mouse (1;1000, Molecular Probes). Taking photo by a fluorescence microscope, and the TH positive cell in the substantia nigra were counted.

[3] = tested on: rat middle cerebral artery distal obstruction cerebral ischemia model; assay: dMCAO cerebral ischemia: infarct size by TTC staining; assay type: in vivo; conditions: HEA 7.5 mg/kg ip, 24 hours after modeling, vs model group
[4] = target: T1, rat striatum adenosine A2A receptor (Rattus norvegicus, UniProt P30543); assay: adenosine A2A receptor ligand binding test ([3H]MSX-2); conditions: rat striatum homogenate, 0.75 nM [3H]MSX-2, 25° C. 30 min; read-out: Ki value of competitive binding with the adenosine A2A receptor
T1 construct: from tissue; host or cells: Wistar rat striatum
T1 sequence (P30543 whole entry): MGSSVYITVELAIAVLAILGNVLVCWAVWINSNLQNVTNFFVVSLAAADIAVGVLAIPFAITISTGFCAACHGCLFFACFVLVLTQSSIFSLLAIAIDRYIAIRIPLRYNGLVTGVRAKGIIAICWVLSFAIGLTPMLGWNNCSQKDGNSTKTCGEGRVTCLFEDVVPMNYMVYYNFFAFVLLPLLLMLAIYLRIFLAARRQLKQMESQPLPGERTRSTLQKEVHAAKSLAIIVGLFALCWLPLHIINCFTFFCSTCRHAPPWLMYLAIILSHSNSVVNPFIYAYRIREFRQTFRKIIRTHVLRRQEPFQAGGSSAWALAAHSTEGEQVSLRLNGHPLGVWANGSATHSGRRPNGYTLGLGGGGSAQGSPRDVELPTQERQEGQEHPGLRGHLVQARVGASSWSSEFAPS
Method: Using Wistar rat, head was cut and the brain was removed, and cerebral cortex and striatum were separated, respectively weighed, added into 10 fold volume of ice-cooled Tris-HCL buffer solution (50 mM, PH7.5) according to 1:10, the tissue is homogenized, after the suspension was centrifuged the supernatant was discarded, the above-described solution wash was repeated for 3 times, centrifuged again and the supernatant was discarded, the precipitate was again mixed in 50 mM Tris-HCL buffer solution, the protein concentration in rat cerebral cortex determined by Coomassie Brilliant Blue Method (Bradford method) was 0.8 mg/ml, the protein content in rat striatum brain tissue homogenate was 1.3 mg/ml.
To a detect tube the HEA with different concentration (10^−9, 10^−8, 10^−7, 10^−6, 10^−5 mol/L) were added, mixed well, then incubated at 25° C. in water bath on shaking table for 30 min, the reaction liquid was drawn by a cell collector, passed the GF/B glass filter membrane (Watman), reaction was terminated, washed 3 times with Tris-HCl buffer solution, each time 3 ml, the filter membrane was removed and dried, then put into a scintillation vial containing 4 ml of scintillation solution to determine radioactivity. A radioactivity count to the filter membrane was conducted by a scintillation counter.

[5] = target: T2, rat cerebral cortex adenosine A1 receptor (Rattus norvegicus, UniProt P25099); assay: adenosine A1 receptor ligand binding test ([3H]DPCPX)
T2 construct: DPCPX; from tissue; host or cells: Wistar rat cerebral cortex
T2 sequence (P25099 1-326): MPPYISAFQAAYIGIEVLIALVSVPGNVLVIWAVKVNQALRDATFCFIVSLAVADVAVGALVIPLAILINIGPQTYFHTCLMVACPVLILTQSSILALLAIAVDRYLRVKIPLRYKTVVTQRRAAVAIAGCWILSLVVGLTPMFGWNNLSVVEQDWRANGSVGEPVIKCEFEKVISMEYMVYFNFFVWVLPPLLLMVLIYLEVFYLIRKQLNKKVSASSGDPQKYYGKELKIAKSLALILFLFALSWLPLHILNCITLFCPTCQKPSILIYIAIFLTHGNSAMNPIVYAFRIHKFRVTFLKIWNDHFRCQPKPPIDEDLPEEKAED

[6] = tested on: mouse PD model induced by MPTP; assay: MPTP induced mouse PD model: pole-climbing method; assay type: in vivo; conditions: MPTP 30 mg/kg mice; Cordyceps cicadae extract 1500 mg/kg; HEA 10 mg/kg ip; 14 days
Method: 24±1 g male C57BL/6 mice were randomly divided into six groups: control group, model group, Cordyceps cicadae extract group (1500 mg/kg) (the extract method can refer to Example 3), HEA (5 mg/kg, 10 mg/kg, 15 mg/kg) group. Using mouse PD model induced by 1-methyl-4-phenyl-[…] (MPTP), in Cordyceps cicadae crude extract group and HEA with different concentration group were respectively peritoneal injected for consecutive 14 days, and at Day 11, before 1 hour of drug administration, MPTP 30 mg/kg was peritoneally injected, for consecutive 4 days, after one day after the last administration, a behavior test of pole-climbing ability was conducted, after 4 days the rat wad killed by puling neck and the striatum was removed. The control group was given same amount of normal saline, the model group at Day 11, one hour before the normal saline was given, MPTP 30 mg/kg was peritoneally injected, for four consecutive days.
Heading down, the mouse was placed onto top of a wooden pole with a length of 50 cm, diameter of 10 mm, the time for the mouse clime from top to bottom along the pole was record, the time difference between before and after the modeling was calculate, and analyzed statistically.

Row | SMILES | effect of DPCPX on sedation of the HEA ([1]; DPCPX 4 mg/kg ip 10 min before HEA 15 mg/kg) | number of the TH positive cells in substantia nigra [2] | infarct size (TTC staining) [3] | spontaneous activity number within 5 min ([1]; normal mouse, HEA 15 mg/kg ip, 15 min after administration, vs solvent group) | Ki [4] [µM] | affinity to adenosine A1 receptor relative to adenosine A2A receptor ([5]; A1 versus A2A) [fold] | selectivity to A1 receptor (in words) ([5]; A1 versus A2A binding) | Ki ([5]; rat cerebral cortex homogenate, 0.2 nM [3H]DPCPX, 25° C. 30 min, read-out: Ki value of competitive binding with the adenosine A1 receptor) [µM] | multilimb coordination ability (pole-climbing) [6]
1 | CCCn1c(=O)c2[nH]c(C3CCCC3)nc2n(CCC)c1=O [DPCPX, reference compound] | sedation of the HEA is significantly antagonized |  |  |  |  |  |  |  | 
2 | OCCNc1ncnc2c1ncn2[C@@H]1O[C@H](CO)[C@@H](O)[C@H]1O [HEA, N(6)-(2-hydroxyethyl)-adenosine] |  | increase number of the TH positive cells | significantly reduce cerebral infarction area; also recorded: significantly reduce the infarct size of the injured brain | significant; also recorded: significantly reduce spontaneous activity number of normal mouse within 5 min | ~8.92 | 100 | high selectivity to A1 receptor | 0.0895 | improve multilimb coordination ability of mouse to different degree
